# Entries after “also recorded” stand apart in the source; their conditions may differ. Where a name gives a salt, the structure may show the parent alone.
# Tested on: HCC1806 human breast cancer xenografts
# Assay: Antitumor activity against subcutaneous HCC1806 human breast cancer xenografts in athymic mice
# Assay type: in vivo
# Method: HCC1806 human triple negative breast cancer cells, wild type for BRCA and PTEN, were maintained in monolayer cultures in RPMI-1640 growth medium supplemented with 10% fetal bovine serum at 37° C. in a 5% CO2 humidified incubator. On the day of inoculation, cells were harvested by trypsinization, washed, and resuspended in ice-cold PBS. Female immunodeficient athymic mice were inoculated subcutaneously near the right axillary area using a 26-gauge needle with HCC1806 cells (2.5×10^6) in a 0.1 mL volume. A total of 60 mice, approximately 6 weeks old were implanted with cells.
# E7449 and E7389 were evaluated as single agents and in combination for anti-tumor activity against HCC1806 human breast cancer xenografts in athymic mice. The experiment consisted of a vehicle-treated control group, an E7449 single agent-treated group, two groups treated with single agent E7389 and 2 combination drug-treated groups (Table 7). Each group was composed of 8 mice for a total of 48 mice on the first day of treatment. Sixty mice were inoculated with HCC1806 cells and on day 5 following implantation, tumor volumes were measured and mice were randomized into the 6 treatment groups based on tumor volume (average of 150 mm^3). Following randomization drug treatment was initiated (Day 5). E7449 was formulated in 0.5% methyl cellulose and orally administrated daily at 100 mg/kg based on body weight at 0.1 mL per 10 g. E7449 was administered once daily for 28 days (starting on Day 5) as a single agent or in combination with E7389. E7389 was formulated in saline and was administered intravenously once every 4 days 4 times (Day 5, 9, 13, and 17) at a dosage of 0.1 or 0.4 mg/kg as single agent or in combination with E7449, based on body weight at 0.1 mL per 10 g. The control group was treated with oral vehicle (0.5% methyl cellulose in water) daily and intravenous vehicle (saline) once every 4 days, 4 times. E7449 or vehicle was administered first and when dosing of all animals was complete E7389 was administered to animals receiving the combination.
# Tumor dimensions were recorded twice per week starting at the initiation of drug treatment. […] The data generated consist of group mean tumor volumes and group mean body weights at each measurement.
# Drug treatment was initiated following randomization on Day 5 (5 days post tumor implantation) and continued for 28 days. Animals whose tumor measurement reached ≥2 cm at the longest axis were euthanized prior to study termination. The study was terminated on Day 38. Statistical analysis was performed on Day 20.
# Statistical analysis of the vehicle group (A) versus all drug treatment groups (B, C, D, E and F) was performed by a one way analysis of variance (ANOVA) for tumor volume followed by Dunnett's multiple comparison test. […]
smiles,measurement,setting,value
"C=C1C[C@@H]2CC[C@@]34C[C@H]5OC6[C@@H](O[C@H]7CC[C@H](CC(=O)C[C@@H]8[C@@H](OC)[C@@H](C[C@H](O)CN)O[C@H]8C[C@H]8O[C@@H](CC[C@@H]1O2)C[C@@H](C)C8=C)O[C@@H]7[C@@H]6O3)[C@H]5O4 [E7389, 11, 15:18,21:24,28-triepoxy-7,9-ethano-12,15-methano-9H,15H-furo[3,2-i]furo[2′,3′:5,6]pyrano[4,3-b] [1,4]dioxacyclopentacosin-5(4H)-one, 2-[(2S)-3-amino-2-hydroxypropyl]hexacosahydro-3-methoxy-26-methyl-20,27-bis(methylene)-, (2R,3R,3aS,7R,8aS,9S,10aR,11S,12R,13aR,13bS,15S,18S,21S,24S,26R,28R,29aS)-methanesulfonate (salt)]",antitumor effect (tumor volume),"E7389 0.1 mg/kg IV Q4Dx4, single agent",tumor growth inhibition
same,antitumor effect (tumor volume),"E7389 0.4 mg/kg IV Q4Dx4, single agent",tumor regression
same,"antitumor effect (tumor volume), dose dependence","E7389 0.1 and 0.4 mg/kg IV Q4Dx4, single agent",Dose-dependent antitumor activity
O=c1[nH]nc2c3c(cccc13)N=C(CN1Cc3ccccc3C1)N2 [E7449],antitumor effect (tumor volume),"E7449 100 mg/kg PO QDx28, single agent, 100 mg/kg",no effect on tumor growth; also recorded: No antitumor activity
